The values that follow come from publication PMC9325490, “Overcoming Multidrug Resistance (MDR): Design, Biological Evaluation and Molecular Modelling Studies of 2,4‐Substituted Quinazoline Derivatives” (Chemmedchem, 2022).

Entries after “also recorded” stand apart in the source; their conditions may differ.

Data set [1] addresses T1, P-gp (Homo sapiens, UniProt P08183). The data set is described as follows: Calcein-AM transport inhibition in MDCK-MDR1 cells. The following applies: for EC50 P-gp: MDCK-MDR1 cells overexpressing P-gp, calcein-AM, mean ±SEM of two experiments in triplicate.
Protocol: (§2) The new compounds were tested for their activity toward P‐gp and the other two MDR sister proteins, MRP1 and BCRP, by measuring the inhibition of the transport of the profluorescent probe calcein‐AM (P‐gp and MRP1 substrate) in cells overexpressing P‐gp and MRP1 (MDCK‐MDR1 and MDCK‐MRP1 cells, respectively) and of the fluorescent probe Hoechst 33342 (BCRP substrate) in cells overexpressing BCRP (MDCK‐BCRP cells).
Each cell line (30,000 cells per well) was seeded into black CulturePlate 96/wells plate with 100 μL medium and allowed to become confluent overnight. 100 μL of test compounds, solubilized in culture medium, were added to monolayers, with final concentrations ranging from 0.1 to 100 μM. Thus, after a 30 min incubation time at 37 °C, calcein‐AM was added in 100 μL of Phosphate Buffered Saline (PBS) to the 96/wells plate to yield a final concentration of 2.5 μM; the plate was then incubated for 30 min. Each well was washed 3 times with ice cold PBS and saline buffer was added to each well and the plate read with Victor3 (PerkinElmer) at excitation and emission wavelengths of 485 nm and 535 nm, respectively. In these experimental conditions, calcein cell accumulation in the absence and in the presence of tested compounds was evaluated and fluorescence basal level was estimated with untreated cells. In treated wells, the increase of fluorescence with respect to basal level was measured. EC50 values were determined by fitting the fluorescence increase percentage versus log[dose].
The target in data set [2] is T1, P-gp. Kind of data set: ATP cell depletion (ATPlite assay) in MDCK-MDR1 cells. Conditions: Yes/No.
Protocol: In addition, the P‐gp interacting profile of the new compounds was evaluated by the combination of the inhibition of the efflux of calcein‐AM in MDCK‐MDR1 cells test with other two assays: the apparent permeability (Papp ) determination in the Caco‐2 cell monolayer, and the ATP cell depletion in MDCK‐MDR1 cells. […] This last information is completed by the ATP cell depletion assay, which measures the total ATP cell level in the MDCK cells overexpressing only P‐gp: in this setting, the observed effect can be mainly ascribed to the overexpressed transporter.[42]
The MDCK‐MDR1 cells seeded into 96‐well microplate in 100 μL of complete medium at a density 2×10^4 cells/well were incubated overnight (O/N) in a humidified atmosphere 5 % CO2 at 37 °C. The medium was removed and 100 μL of complete medium either alone or containing different concentrations of test compounds were added. The plate was incubated for 2 h in a humidified 5 % CO2 atmosphere at 37 °C. 50 μL of mammalian cell lysis solution was added to all wells and the plate shaken for five minutes in an orbital shaker. 50 μL of substrate solution was added to all wells and the plate shaken for five minutes in an orbital shaker. The plate was dark adapted for ten minutes and the luminescence was measured.
Data set [3] relates to P-gp. The data set is described as follows: Apparent permeability (Papp, BA/AB) in Caco-2 cell monolayer. Conditions: human, Caco-2, P app (BA/AB), two experiments in duplicate. For orientation: Passage across Caco-2 layers is used to estimate intestinal permeability.
Protocol: Compounds displaying a BA/AB >2 but not inducing an ATP cell depletion are classified as class IIB3 substrates.[43]
Caco‐2 cells were seeded onto a Millicell assay system (Millipore), in which a cell monolayer was set in between a filter cell and a receiver plate at a density of 20000 cells/well. The culture medium was replaced every 48 h, and the cells were kept for 21 days in culture. The trans epithelial electrical resistance (TEER) of the monolayers was measured daily, before and after the experiment, by using an epithelial voltohmmeter (Millicell‐ERS). Generally, TEER values greater than 1000 Ω for a 21 day culture are considered optimal.
After 21 days of Caco‐2 cell growth, the medium was removed from the filter wells and from the receiver plate, and they were filled with fresh Hank's balanced salt solution (HBSS) buffer (Invitrogen). This procedure was repeated twice, and the plates were incubated at 37 °C for 30 min. After the incubation time, the HBSS buffer was removed, and drug solutions and reference compounds were added to the filter well at a concentration of 100 μM, whereas fresh HBSS was added to the receiver plate. The plates were incubated at 37 °C for 120 min. Afterward, samples were removed from the apical (filter well) and basolateral (receiver plate) side of the monolayer to measure the permeability. The apparent permeability (Papp ), in units of nms‐1, was calculated by using the same equation reported above.
The subject of data set [4] is HT29 cells. The data set is described as follows: Co-administration assay with doxorubicin (MTT) in HT29 cells. The format is cell-based. Here is the method:
(§1) The co‐administration assay with Doxorubicin was performed in MDCK‐MDR1, HT29 and HT29/DX cells at 48 h as reported with minor modifications.[49] […] On day 2, the tested drug was added alone to the cells at different concentrations (10 nM, 100 nM, 500 nM, 1 μM, 10 μM). On day 3, the medium was removed and the drug at the same concentrations was added alone and in co‐administration with 10 μM Doxorubicin to the cells. After the established incubation time with the tested drug, MTT (0.5 mg/mL) was added to each well, and after 3–4 h incubation at 37 °C, the supernatant was removed. The formazan crystals were solubilized using 100 μL of DMSO/EtOH (1 : 1), and the absorbance values at 570 and 630 nm were determined on the microplate reader Victor 3 from PerkinElmer Life Sciences.

The subject of data set [5] is HT29/DX cells. Kind of data set: Co-administration assay with doxorubicin (MTT) in HT29/DX cells. The format is cell-based. Here is the method: as §1
In data set [6] the test system is HT29 cells. The data set is described as follows: Intracellular doxorubicin accumulation in HT29 cells. The following applies: 24 h, doxorubicin 10 μM + compound 100 nM-10 μM.
Protocol: (§3) Cells were collected and the intracellular drug content was measured fluorimetrically as detailed previously,[47] using a Synregy HTX 96‐well plate reader (Bio‐Tek Instruments, Winooski, VT). The results were expressed as nmol doxorubicin/mg cell proteins, according to a titration curve previously set. […] A second series of dishes, after the incubation with doxorubicin formulations under the same experimental conditions, were left for further 10 min at 37 °C, then washed and tested for the intracellular drug content. The difference of doxorubicin concentration between the two series, expressed as nmol doxorubicin extruded/min/mg cell protein was plotted versus the initial drugs’ concentration. Values were fitted to Michaelis‐Menten equation to calculate Vmax and Km, using the Enzfitter software (Biosoft Corporation, Cambridge, United Kingdom).[47]
Data set [7] relates to HT29/DX cells. Kind of data set: Intracellular doxorubicin accumulation in HT29/DX cells.
Protocol: as §3
For another data set, the target named is MRP1 (Homo sapiens, UniProt P33527). The data set is described as follows: cell-based.
Sequence of MRP1 (P33527 whole entry): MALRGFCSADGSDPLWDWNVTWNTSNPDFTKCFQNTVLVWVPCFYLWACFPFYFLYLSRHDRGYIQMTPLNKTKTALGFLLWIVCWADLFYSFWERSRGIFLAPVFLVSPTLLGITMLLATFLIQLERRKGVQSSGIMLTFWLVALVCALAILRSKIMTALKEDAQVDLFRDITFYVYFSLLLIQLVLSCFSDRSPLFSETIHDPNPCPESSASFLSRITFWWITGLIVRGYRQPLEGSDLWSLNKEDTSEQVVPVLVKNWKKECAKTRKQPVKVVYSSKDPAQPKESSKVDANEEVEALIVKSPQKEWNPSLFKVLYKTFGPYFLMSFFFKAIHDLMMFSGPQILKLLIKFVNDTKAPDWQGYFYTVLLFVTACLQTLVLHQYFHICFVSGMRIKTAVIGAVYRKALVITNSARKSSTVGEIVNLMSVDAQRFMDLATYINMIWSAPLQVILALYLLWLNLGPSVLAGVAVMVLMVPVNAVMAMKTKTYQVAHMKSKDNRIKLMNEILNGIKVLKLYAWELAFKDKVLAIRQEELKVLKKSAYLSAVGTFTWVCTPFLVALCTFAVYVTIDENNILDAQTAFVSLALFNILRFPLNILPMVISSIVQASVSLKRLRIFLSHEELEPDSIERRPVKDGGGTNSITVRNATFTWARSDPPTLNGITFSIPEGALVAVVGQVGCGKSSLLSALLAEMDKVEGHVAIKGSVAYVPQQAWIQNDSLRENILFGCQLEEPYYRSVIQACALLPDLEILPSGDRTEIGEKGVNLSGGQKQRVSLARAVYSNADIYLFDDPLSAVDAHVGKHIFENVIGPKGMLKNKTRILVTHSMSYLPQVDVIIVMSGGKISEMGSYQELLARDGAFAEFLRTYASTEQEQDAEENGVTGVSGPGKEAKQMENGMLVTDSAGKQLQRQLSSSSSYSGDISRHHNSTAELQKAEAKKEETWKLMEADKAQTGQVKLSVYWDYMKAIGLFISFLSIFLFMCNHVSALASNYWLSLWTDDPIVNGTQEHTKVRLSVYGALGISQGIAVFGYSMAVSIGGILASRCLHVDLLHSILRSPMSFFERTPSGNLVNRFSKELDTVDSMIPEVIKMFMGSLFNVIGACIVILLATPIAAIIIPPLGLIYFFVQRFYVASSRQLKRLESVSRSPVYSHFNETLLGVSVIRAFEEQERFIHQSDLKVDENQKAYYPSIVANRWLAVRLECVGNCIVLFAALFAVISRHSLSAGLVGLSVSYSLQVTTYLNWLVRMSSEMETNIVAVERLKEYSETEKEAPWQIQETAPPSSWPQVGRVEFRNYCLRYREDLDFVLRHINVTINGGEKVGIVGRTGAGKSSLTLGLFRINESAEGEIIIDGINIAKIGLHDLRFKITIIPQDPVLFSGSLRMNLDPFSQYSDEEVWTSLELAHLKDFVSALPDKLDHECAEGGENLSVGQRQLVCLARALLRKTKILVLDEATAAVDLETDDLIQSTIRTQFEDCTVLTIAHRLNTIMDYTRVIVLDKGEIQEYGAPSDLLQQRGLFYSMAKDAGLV
In a further data set the test system is Caco-2 cell monolayer. The data set is described as follows: Apparent permeability (Papp, BA/AB) in Caco-2 cell monolayer. The following applies: BA/AB ratio, two experiments in duplicate.
Data set [8] has as its target T1, P-gp. The data set is described as follows: P-gp interacting profile (combination of calcein-AM, Papp and ATP cell depletion assays). Conditions: classification from Papp, calcein-AM inhibition and ATP cell depletion.
Protocol: In addition, the P‐gp interacting profile of the new compounds was evaluated by the combination of the inhibition of the efflux of calcein‐AM in MDCK‐MDR1 cells test with other two assays: the apparent permeability (Papp ) determination in the Caco‐2 cell monolayer, and the ATP cell depletion in MDCK‐MDR1 cells. […] This last information is completed by the ATP cell depletion assay, which measures the total ATP cell level in the MDCK cells overexpressing only P‐gp: in this setting, the observed effect can be mainly ascribed to the overexpressed transporter.[42] […] Compounds displaying a BA/AB >2 but not inducing an ATP cell depletion are classified as class IIB3 substrates.[43]
A further data set addresses T2, BCRP (Homo sapiens, UniProt Q9UNQ0).
T2 construct: expressed in transfected cells; host or cells: MDCK-BCRP (Madin-Darby Canine Kidney, transfected); gift of Prof; P. Borst, NKI-AVL
T2 sequence (Q9UNQ0 1-655): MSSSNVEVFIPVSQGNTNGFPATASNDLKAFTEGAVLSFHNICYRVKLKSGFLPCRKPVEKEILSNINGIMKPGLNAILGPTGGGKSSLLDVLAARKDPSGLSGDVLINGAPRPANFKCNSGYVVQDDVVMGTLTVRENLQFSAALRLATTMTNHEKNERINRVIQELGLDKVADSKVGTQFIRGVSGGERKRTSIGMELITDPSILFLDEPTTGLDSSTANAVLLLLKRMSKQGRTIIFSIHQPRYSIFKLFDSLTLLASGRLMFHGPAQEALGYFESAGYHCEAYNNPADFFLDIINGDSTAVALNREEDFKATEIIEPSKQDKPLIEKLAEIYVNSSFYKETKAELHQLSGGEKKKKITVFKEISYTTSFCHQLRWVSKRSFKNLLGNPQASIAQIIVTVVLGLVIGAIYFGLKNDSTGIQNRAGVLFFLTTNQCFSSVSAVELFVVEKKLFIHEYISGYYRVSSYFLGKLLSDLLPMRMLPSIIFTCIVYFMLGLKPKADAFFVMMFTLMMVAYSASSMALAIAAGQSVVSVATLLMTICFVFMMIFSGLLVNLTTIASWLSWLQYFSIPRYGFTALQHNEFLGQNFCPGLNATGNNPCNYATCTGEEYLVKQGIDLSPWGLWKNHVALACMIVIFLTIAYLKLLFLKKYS
The data set is described as follows: Hoechst 33342 transport inhibition in MDCK-BCRP cells. Format: cell-based. Conditions: MDCK-BCRP cells overexpressing BCRP, mean ±SEM.

Data set [9] has as its system HT29 cells. The data set is described as follows: Kinetic parameters of doxorubicin efflux in HT29 cells.
Protocol: as §3
The subject of data set [10] is HT29/DX cells. Kind of data set: Kinetic parameters of doxorubicin efflux in HT29/DX cells.
Protocol: as §3
The mark [11] stands for this setting: absence or presence of 10 μM compound 1 e.
Setting [12] is: read-out: Km of doxorubicin efflux, absence or presence of 10 μM compound 1 e.

T1 sequence (P08183 whole entry): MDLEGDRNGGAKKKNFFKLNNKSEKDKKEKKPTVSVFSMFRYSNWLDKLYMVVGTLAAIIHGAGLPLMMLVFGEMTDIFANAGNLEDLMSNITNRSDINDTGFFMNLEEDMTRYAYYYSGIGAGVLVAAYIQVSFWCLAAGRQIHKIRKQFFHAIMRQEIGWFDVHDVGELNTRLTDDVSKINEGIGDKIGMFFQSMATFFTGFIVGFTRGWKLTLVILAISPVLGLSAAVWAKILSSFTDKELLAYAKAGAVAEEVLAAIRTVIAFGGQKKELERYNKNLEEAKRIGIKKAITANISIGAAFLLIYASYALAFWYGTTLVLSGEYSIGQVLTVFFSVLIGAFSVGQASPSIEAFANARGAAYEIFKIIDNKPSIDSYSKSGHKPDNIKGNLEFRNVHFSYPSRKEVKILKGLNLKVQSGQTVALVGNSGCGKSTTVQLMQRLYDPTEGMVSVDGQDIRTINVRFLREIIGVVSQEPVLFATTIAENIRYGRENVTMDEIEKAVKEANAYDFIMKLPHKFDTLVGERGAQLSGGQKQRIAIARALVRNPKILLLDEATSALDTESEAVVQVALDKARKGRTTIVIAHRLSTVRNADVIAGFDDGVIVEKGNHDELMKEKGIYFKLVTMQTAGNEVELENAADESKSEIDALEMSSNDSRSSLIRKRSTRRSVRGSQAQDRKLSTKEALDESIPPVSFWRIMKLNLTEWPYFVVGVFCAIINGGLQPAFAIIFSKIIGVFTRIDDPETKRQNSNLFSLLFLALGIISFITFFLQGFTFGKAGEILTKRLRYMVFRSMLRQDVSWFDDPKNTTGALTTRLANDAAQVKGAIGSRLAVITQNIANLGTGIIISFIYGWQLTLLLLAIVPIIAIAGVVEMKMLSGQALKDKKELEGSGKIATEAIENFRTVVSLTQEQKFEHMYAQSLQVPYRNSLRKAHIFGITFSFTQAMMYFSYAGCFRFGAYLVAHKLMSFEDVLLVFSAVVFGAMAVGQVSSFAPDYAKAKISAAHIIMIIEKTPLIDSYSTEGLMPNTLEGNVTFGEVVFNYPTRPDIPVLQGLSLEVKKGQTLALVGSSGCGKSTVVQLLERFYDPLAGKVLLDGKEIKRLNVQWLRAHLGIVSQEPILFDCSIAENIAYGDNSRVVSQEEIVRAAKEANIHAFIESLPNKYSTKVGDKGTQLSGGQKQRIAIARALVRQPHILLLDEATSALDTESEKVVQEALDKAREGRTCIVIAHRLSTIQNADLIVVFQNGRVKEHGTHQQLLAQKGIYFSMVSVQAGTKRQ
Protocol for BCRP: Each cell line (30,000 cells per well) was seeded into black CulturePlate 96/wells plate with 100 μL medium and allowed to become confluent overnight. 100 μL of test compounds, solubilized in culture medium, were added to monolayers, with final concentrations ranging from 0.1 to 100 μM. After 30 min incubation time at 37 °C, Hoechst 33342 was added in 100 μL of Phosphate Buffered Saline (PBS) to yield a final concentration of 8 μM to the 96/wells plate and the plate incubated for 30 min. The supernatants were drained and the cells were fixed for 20 min under light protection using 100 μL per well of a 4 % PFA solution. Each well was washed 3 times with ice cold PBS and saline buffer added to each well and the plate read with Victor3 (PerkinElmer) at excitation and emission wavelengths of 340/35 nm and 485/20 nm, respectively. In these experimental conditions, Hoechst 33342 accumulation in the absence and in the presence of tested compounds was evaluated and fluorescence basal level was estimated with untreated cells. In treated wells the increase of fluorescence with respect to basal level was measured. EC50 values were determined by fitting the fluorescence increase percentage versus log[dose].
Protocol for MRP1: as §2
Each cell line (30,000 cells per well) was seeded into black CulturePlate 96/wells plate with 100 μL medium and allowed to become confluent overnight. 100 μL of test compounds, solubilized in culture medium, were added to monolayers, with final concentrations ranging from 0.1 to 100 μM. […] Each well was washed 3 times with ice cold PBS and saline buffer was added to each well and the plate read with Victor3 (PerkinElmer) at excitation and emission wavelengths of 485 nm and 535 nm, respectively. In these experimental conditions, calcein cell accumulation in the absence and in the presence of tested compounds was evaluated and fluorescence basal level was estimated with untreated cells. In treated wells, the increase of fluorescence with respect to basal level was measured. EC50 values were determined by fitting the fluorescence increase percentage versus log[dose].

`COc1ccc(C(c2ccc(OC)cc2)c2nc(N3CCc4cc(OC)c(OC)cc4C3)c3ccccc3n2)cc1` [Compound 7 e, 2‐(Bis(4‐methoxyphenyl)methyl)‐4‐(6,7‐dimethoxy‐3,4‐dihydroisoquinolin‐2(1H)‐yl)quinazoline]: the EC50 at P-gp [1] was 0.16 ± 0.026 µM. Besides, the ATP cell depletion entry at P-gp [2] is “No”. Further, in the data set on P-gp [3], the efflux ratio at 120 min, 100 μM was 8.4.

In the case of `COc1cc2c(cc1OC)CN(c1nc(/C=C/c3cc(OC)c(OC)c(OC)c3)nc3ccccc13)CC2` [Compound 1 e, (E)‐4‐(6,7‐Dimethoxy‐3,4‐dihydroisoquinolin‐2(1H)‐yl)‐2‐(3,4,5‐trimethoxystyryl)quinazoline], the “cell viability, compound alone” value in the data set with HT29 cells [4] (HT29 (doxorubicin-sensitive) cells) and in the data set with HT29/DX cells [5] (HT29/DX (doxorubicin-resistant) cells) was “did not significantly reduce cell viability” throughout. Also, the “viability with doxorubicin co-administration” value in the data set with HT29/DX cells [5] (HT29/DX cells, doxorubicin 10 μM + compound 10 μM) was “reduced at the same extent of doxorubicin‐sensitive cells”. Besides, the “effect on intracellular doxorubicin content” value was “did not modify the intracellular drug content” in the data set with HT29 cells [6] and “progressively increased it” with HT29/DX cells [7] (HT29/DX cells, 24 h, doxorubicin 10 μM + compound 100 nM-10 μM).

With `c1ccc(CCNc2nc(-c3c4ccccc4cc4ccccc34)nc3ccccc23)cc1` [Compound 3 b, 2‐(Anthracen‐9‐yl)‐N‐phenethylquinazolin‐4‐amine], the melting point was 236 to 238 °C (dec.). For the same compound, the “EC50 P-gp” value at P-gp [1] is given as “not active”. In the data set on P-gp [3], the efflux ratio at 120 min, 100 μM is 10.5.

`COc1cc2c(cc1OC)CN(CCc1ccc(Nc3nc(-c4c(OC)c(OC)cc5ccccc45)nc4ccccc34)cc1)CC2` [Compound 6 a, N‐(4‐(2‐(6,7‐Dimethoxy‐3,4‐dihydroisoquinolin‐2(1H)‐yl)ethyl)phenyl)‐2‐(2,3‐dimethoxynaphthalen‐1‐yl)quinazolin‐4‐amine]: the EC50 on P-gp [1] is 0.2 ± 0.04 µM. For the same compound, the ATP cell depletion entry on P-gp [2] is recorded as “No”. Besides, the efflux ratio at 120 min, 100 μM in the data set with P-gp [3] stood at 19.2.

As to `c1ccc2c(-c3nc(N4CCOCC4)c4ccccc4n3)c3ccccc3cc2c1` [Compound 3 c, 4‐(2‐(Anthracen‐9‐yl)quinazolin‐4‐yl)morpholine], on P-gp [1], the “EC50 P-gp” value is “not active”. Besides, in the data set on P-gp [3], the efflux ratio at 120 min, 100 μM was 20.

Take `COc1ccc(-c2nc(NCCc3ccccc3)c3ccccc3n2)c(OC)c1OC` [Compound 4 b, N‐Phenethyl‐2‐(2,3,4‐trimethoxyphenyl)quinazolin‐4‐amine]: the results for the EC50 at MRP1 and on P-gp [1] were 52 ± 10.1 µM and 1.41 ± 0.25 µM, respectively. Besides, the ATP cell depletion entry on P-gp [2] is “No”. Moreover, in the data set on P-gp [3], the efflux ratio at 120 min, 100 μM is 14.8.

Turning to `COc1cc2c(cc1OC)CN(CCc1ccc(NC(=O)c3cc(OC)c(OC)cc3NC(=O)c3cnc4ccccc4c3)cc1)CC2` [tariq, tariquidar, reference compound], the ATP cell depletion result at P-gp [2] was “Yes^[d]”. The efflux ratio at 120 min, 100 μM in the data set on P-gp [3] is over 20.

Regarding `COc1ccc(C(c2ccc(OC)cc2)c2nc(Nc3ccc(CCN4CCc5cc(OC)c(OC)cc5C4)cc3)c3ccccc3n2)cc1` [Compound 7 a, 2‐(Bis(4‐methoxyphenyl)methyl)‐N‐(4‐(2‐(6,7‐dimethoxy‐3,4‐dihydroisoquinolin‐2(1H)‐yl)ethyl)phenyl)quinazolin‐4‐amine], on P-gp [1], the EC50 is 0.11 ± 0.02 µM. Besides, on P-gp [2], the ATP cell depletion result is recorded as “No”. Besides, the efflux ratio at 120 min, 100 μM with P-gp [3] was 32.9.

On to `COc1cc2c(cc1OC)CN(c1nc(-c3c4ccccc4cc4ccccc34)nc3ccccc13)CC2` [Compound 3 e, 2‐(Anthracen‐9‐yl)‐4‐(6,7‐dimethoxy‐3,4‐dihydroisoquinolin‐2(1H)‐yl)quinazoline], for which the EC50 at P-gp [1] was 1.14 ± 0.2 µM. The ATP cell depletion entry on P-gp [2] was “No”. For the same compound, the efflux ratio at 120 min, 100 μM in the data set on P-gp [3] amounted to 18.5.

Consider `COc1ccc(-c2nc(N3CCOCC3)c3ccccc3n2)c(OC)c1OC` [Compound 4 c, 4‐(2‐(2,3,4‐Trimethoxyphenyl)quinazolin‐4‐yl)morpholine], for which the EC50 at P-gp [1] is 9.55 ± 1.8 µM. Further, on P-gp [2], the ATP cell depletion result is reported as “No”. Moreover, in the data set on P-gp [3], the efflux ratio at 120 min, 100 μM stood at 3.8.

Turning to `COc1cc2c(cc1OC)CN(CCc1ccc(NC(=O)c3cccc4c(=O)c5cccc(OC)c5[nH]c34)cc1)CC2` [elacr, elacridar, reference compound], the ATP cell depletion result on P-gp [2] was “Yes^[e]”.

For `COc1ccc(C(c2ccc(OC)cc2)c2nc(N3CCOCC3)c3ccccc3n2)cc1` [Compound 7 c], at P-gp [1], the EC50 is 2.13 ± 0.4 µM. The ATP cell depletion entry at P-gp [2] was “do not inducing ATP cell depletion and No”. Moreover, the “P app (BA/AB)” value in the data set on Caco-2 cell monolayer is recorded as 1.5. Further, in the data set with P-gp [3], the efflux ratio at 120 min, 100 μM was under 2. For the same compound, the P-gp interacting profile entry on P-gp [8] was “P‐gp inhibitor; also recorded: pure inhibitor”.

As to `COc1ccc2ccccc2c1-c1nc(N2CCN(C)CC2)c2ccccc2n1` [Compound 5 d, 2‐(2‐Methoxynaphthalen‐1‐yl)‐4‐(4‐methylpiperazin‐1‐yl)quinazoline], the EC50 on P-gp [1] is 6.06 ± 1.2 µM. The ATP cell depletion result at P-gp [2] is recorded as “No”. Moreover, the efflux ratio at 120 min, 100 μM in the data set on P-gp [3] is 5.4.

Turning to `COc1ccc(C(c2ccc(OC)cc2)c2nc(N3CCN(C)CC3)c3ccccc3n2)cc1` [Compound 7 d, 2‐(Bis(4‐methoxyphenyl)methyl)‐4‐(4‐methylpiperazin‐1‐yl)quinazoline], the results for the EC50 on BCRP, at MRP1 and on P-gp [1] were 8.62 ± 1.6 µM, 43.2 ± 8.5 µM and 0.96 ± 0.18 µM, respectively. In addition, the ATP cell depletion result on P-gp [2] was “No”. Besides, the efflux ratio at 120 min, 100 μM in the data set on P-gp [3] was found to be 6.9.

Consider `COc1cccc2c1C(=O)c1c(O)c3c(c(O)c1C2=O)C[C@@](O)(C(=O)CO)C[C@@H]3O[C@H]1C[C@H](N)[C@H](O)[C@H](C)O1` [Doxo, doxorubicin], for which the “viable cells, doxorubicin alone” value in the data set with HT29 cells [4] (HT29 cells, doxorubicin 10 μM) is listed as “significant decrease in viable cells”. Besides, the “Vmax of doxorubicin efflux” value in the data set with HT29 cells [9] (setting [11]) is 3.15 ± 0.07 µmol/min; in the data set on HT29/DX cells [10] (setting [11]), 8.05 ± 0.64 µmol/min. Moreover, the Km came out at 0.53 ± 0.06 µM in the data set on HT29 cells [9] (setting [12]) and 0.52 ± 0.06 µM in the data set on HT29/DX cells [10] (setting [12]). Also, the “intracellular doxorubicin retained, doxorubicin alone” value in the data set with HT29/DX cells [7] (HT29/DX cells compared with HT29 cells) is recorded as “retained a lower amount of doxorubicin”.

Usually EC50 stands for the concentration giving half of the maximal effect. By efflux ratio is commonly meant a quotient of directional permeabilities that is used to spot active efflux. Broadly, the melting point is the temperature, or range, at which the solid turns liquid. What is called Km is the concentration of substrate that gives half-maximal velocity.
